Measurements as given in article PMC7870075, “Physicochemical properties and formulation development of a novel compound inhibiting Staphylococcus aureus biofilm formation” (PLoS ONE, 2021).
In brackets after ≈: the same amount, converted by molar mass. Several values for one entry are separate records, joined by “and”; a condition that tells them apart may be missing. Equal entries are not always repeated. Where two headings read alike, the source gives them in different places.

How the values were obtained:
[1] = Mammalian cell cytotoxicity assay (CCK-8); format: cell-based, human; details: human, TZM-bL cells, 24 h
Description: (§1) Cell cytotoxicity assay was performed by following previous protocols with minor revision. TZM-bL cells which is a HeLa cell derivative (a generous gift from Dr. Xiao Heng, University of Missouri) (100 μL, 5,000 cells per well) were grown in Dulbecco’s modified Eagle’s medium (DMEM) (Life Technologies, Grand Island, NY, USA) with 10% fetal bovine serum for 24 h at 37°C in 5% CO2 in duplicates. Supernatant was replaced with 100 μL fresh medium with different concentrations of CCG-211790 to culture the cells for 24 h at 37°C in 5% CO2. DMSO was used as the vehicle control. Ten μL of Cell Counting Kit-8 (CCK-8) solution (APExBIO, Houston, TX, USA) was added to each well of the plate. After 2 h, the plate was read at 450 nm by using a BioTek spectrophotometer (BioTek, Winooski, VT, USA). One hundred percent viability was set at the absorbance of the cells treated with only the vehicle (DMSO). The assay was performed twice in duplicates to obtain the mean and standard deviation of cell viability. The cell viability (survival rate) was calculated with the equation: Survival rate (%) = [(As—Ab) / (Ac—Ab)] x 100, As = Absorbance of tested compound (Absorbance of well containing cells, culture medium, CCK-8 and compound), Ab = Absorbance of blank (Absorbance of well containing culture medium and CCK-8), Ac = Absorbance of control (Absorbance of well containing cell, DMSO and CCK-8).

TZM-bL cells = assay: Mammalian cell cytotoxicity assay (CCK-8); format: cell-based, human; details: for Cell viability %: single samples
Description: as §1

Microsomal stability = format: in vitro ADME; details: mouse liver microsomes, NADPH, 37°C; read-out: half-life in mouse liver microsomes (t1/2)
Description: Microsomal stability assay was performed as previously described. CCG-211790 (100 mM stock solution in DMSO) was diluted 1000-fold with phosphate-buffered saline (PBS) containing up to 10% MeOH as a co-solvent. Compound (100 μM) was added to 366 μL of 100 mM phosphate buffer containing 3.3 mM MgCl2 and 10 μL of 20 mg/mL mouse liver microsomal extract (XenoTech, Lenexa, KS, USA). Enzymatic oxidation was initiated by adding 15 μL of 16.7 mg/mL NADPH in 100 mM phosphate buffer containing 3.3 mM MgCl2. The reactions were carried out at 37°C for 60 min. Aliquots of the reaction mixture (30 μL) were sampled and the reaction was stopped by adding 90 μL cold acetonitrile containing an internal standard compound at each time point (0, 1, 3, 5, 10, 30, and 60 min). The quenched sample mixtures were centrifuged at 16,000 g for 10 min. The supernatant was then analyzed via an LC–MS/MS system equipped with a reverse-phase column.

Solubility in water = format: physicochemical
Description: The concentration of CCG-211790 in deionized water or aqueous solutions was determined using an Agilent series 1100 HPLC system (Agilent Technologies, Santa Clara, CA, USA) equipped with diode array detector. Sample separation was carried out with a Kinetex C18 column (75 mm × 3 mm, particle size 2.6 μm, Phenomenex Inc., Torrance, CA, USA). The mobile phase of acetonitrile-water (50:50, v/v) was used for chromatographic separation. The flow rate was set to 0.5 mL/min, column temperature to 35°C. The absorption was measured at wavelength 255 nm. The injection volume was 30 μL. The retention time of CCG-211790 was 4.9 min. The method detection limit was 0.02 mg/L. Calibration curves were established giving a correlation coefficient >0.9900. To determine the solubility of CCG-211790 in water, an excess amount of CCG-211790 powder was added into water. […] The sample aliquots (0.5 mL each) were centrifuged at 20,000 ×g for 5 min with Amicon Ultra-0.5 Centrifugal Filter Units (MWCO 3000 Da, Millipore Corp., Billerica, MA, USA). Solutions passing through the filter were diluted 2-fold with acetonitrile and CCG-211790 concentration in water was determined by HPLC analysis. The experiment was run in triplicate with mean values and standard deviations being reported.

S. aureus NRS384 strain = assay: Biofilm assay (96-well microtiter plate, crystal violet staining); format: cell-based, Staphylococcus aureus; details: for Inhibition of biofilm formation (vs treated with DMSO %): NRS384, single replicates
Description: Methicillin-resistant Staphylococcus aureus (MRSA) USA300 strain NRS384 (Strain USA300-0114, NR-46070), was provided by the Network on Antimicrobial Resistance in Staphylococcus aureus (NARSA) for distribution by BEI Resources, NIAID, NIH. The NRS384 strain was grown in Todd-Hewitt broth containing 0.2% yeast extract (THY) (Difco, Detroit, MI, USA). The medium for growth of static biofilms was THY with 0.5% glucose. All bacterial cultures were incubated at 37°C.
The biofilm assay was performed using 96-well polystyrene flat-bottom microtiter plate as described previously. Overnight cultures of S. aureus were diluted 1:200 with fresh THY medium containing 0.5% glucose. […] Non-adherent bacteria were washed away by PBS three times. Biofilms attached to microtiter plates were stained by crystal violet solution (Sigma-Aldrich, St. Louis, MO, USA) for 15 min. Excess stain was removed by washing with PBS. The crystal violet attached to biofilm samples was dissolved with ethanol. The absorbance at 595 nm was measured using Spectrostar Nano spectrophotometer (BMG Labtech, Ortenberg, Germany) as the value of biofilm formation. Percentage inhibition of sample treated with CCG-211790 was calculated against the mean of samples treated with DMSO. […] IC50 (the half maximal inhibitory concentration) was estimated.
Statistical analysis of the results was performed using a two-sided Student’s t-test. Dose Response fitting function in Origin was used to calculate the IC50. The IC50 was calculated by plotting the inhibition percentage (y) versus logarithm of dose (x), and fitting the data using the equation y=A1+A2−A1/1+10^(Logx0−x)p . IC50 was calculated as 10^logx0 . A1 stands for bottom asymptote, A2 stands for top asymptote and p is the hill slope (Origin 7.0, OriginLab Corporation, Northampton, MA, USA).

[2] = TZM-bL cells (HeLa cell derivative), single samples, read-out: Cell viability %
[3] = TZM-bL cells (HeLa cell derivative), read-out: Mean of cell viability

For COc1ccc2c(c1)-c1nc(SCC(F)(F)F)n(C)c(=O)c1C(C)(C)C2 [CCG-211790, 9-Methoxy-3,5,5-trimethyl-2-((2,2,2-trifluoroethyl)thio)-5,6-dihydrobenzo[h]quinazolin-4(3H)-one], the viability at 24 h, 6.25 µM [1, 2] was 79.6%, the viability at 24 h, 6.25 µM [1, 3] was 84.3% and the viability at 24 h, 12.5 µM [1, 2] was 80.8%. It also gave a viability at 24 h, 12.5 µM [1, 3] of 76.2%, a viability at 24 h, 25 µM [1, 2] of 69% and a viability at 24 h, 25 µM [1, 3] of 65.3%. For the same compound, the viability at 24 h, 50 µM ([1]; TZM-bL cells (HeLa cell derivative), 50 µM, single samples, read-out: Cell viability %) was 61.3%, the viability at 24 h, 50 µM ([1]; TZM-bL cells (HeLa derivative), 50 μM, normalized to DMSO, read-out: cell survival rate (mean of cell viability)) was 56.1 ± 5.3% and the “cytotoxic concentration (50 μM) as fold of the anti-biofilm IC50” value (TZM-bL cells; 50 μM on TZM-bL cells vs biofilm IC50) was “about 39 fold”. For the same compound, the Cell viability % (TZM-bL cells; TZM-bL cells, 6.25 µM, 24 h) was 86.99% and 84.77% and 85.92%, the Cell viability % (TZM-bL cells; TZM-bL cells, 12.5 µM, 24 h) was 82.11% and 70.18% and 71.70% and the Cell viability % (TZM-bL cells; TZM-bL cells, 25 µM, 24 h) was 69.05% and 56.68% and 66.50%. For the same compound, the “cell survival rate (mean of cell viability)” value (TZM-bL cells; TZM-bL cells, 50 μM, 24 h, normalized to DMSO) was 56.05%, the Cell viability % (TZM-bL cells; TZM-bL cells, 50 µM, 24 h) was 57.46% and 48.66% and 56.82% and the half-life (Microsomal stability) was 19.6 min. The “solubility class according to the definition of US Pharmacopeia” value (Solubility in water; solubility less than 100 μg/mL) was “practically insoluble”, the solubility at 20 h (Solubility in water; thermodynamic from solid, room temperature, 20 h, HPLC) was 0.038 ± 0.01 µg/mL (≈ 0.0988 µM) and the “Inhibition of biofilm formation (vs treated with DMSO %)” value (“Inhibition … (vs treated with DMSO %)” for short) (S. aureus NRS384 strain; 0.39 µM) was 3.94% and -13.46% and 12.53% and 16.63% and 8.53% and 4.38% and 18.40% and 26.22% and 15.26%. For the same compound, the “Inhibition … (vs treated with DMSO %)” value (S. aureus NRS384 strain; 0.78 µM) was 8.82% and 2.09% and 10.90% and 24.07% and 16.41% and 12.91% and 26.42% and 26.03% and 21.14%, the “Inhibition … (vs treated with DMSO %)” value (S. aureus NRS384 strain; 1.56 µM) was 29.00% and 47.10% and 40.37% and 45.73% and 49.67% and 47.05% and 51.47% and 53.42% and 52.45% and the “Inhibition … (vs treated with DMSO %)” value (S. aureus NRS384 strain; 3.13 µM) was 41.76% and 55.22% and 48.72% and 60.18% and 56.46% and 59.74% and 54.01% and 55.58% and 57.14%. The “Inhibition … (vs treated with DMSO %)” value (S. aureus NRS384 strain; 6.25 µM) was 62.41% and 64.27% and 61.48% and 70.02% and 63.24% and 70.24% and 69.08% and 70.25% and 66.93%, the “Inhibition … (vs treated with DMSO %)” value (S. aureus NRS384 strain; 12.50 µM) was 65.20% and 63.57% and 64.97% and 75.93% and 70.24% and 70.02% and 75.73% and 75.34% and 73.19% and the “Inhibition … (vs treated with DMSO %)” value (S. aureus NRS384 strain; 25.00 µM) was 70.30% and 69.84% and 74.25% and 79.43% and 78.99% and 75.05% and 76.52% and 81.02% and 80.63%. For the same compound, the “Inhibition … (vs treated with DMSO %)” value (S. aureus NRS384 strain; 50.00 µM) was 79.58% and 79.12% and 79.35% and 82.49% and 82.28% (2×) and 80.23% and 79.06% and 83.76% and the IC50 (S. aureus NRS384 strain; Staphylococcus aureus, MRSA / NRS 384 / USA300, S. aureus NRS384 (MRSA USA300), overnight 37°C, crystal violet, read-out: IC50 of the inhibition of biofilm formation) was 1280 ± 450 nM.
